Values of other authors, collected in patent US20070259016A1, “Method of treating crops with submicron chlorothalonil” (priority 2006, published 2007).

How the values were obtained:
[1] = at 170 C.
[2] = acid and neutral aqueous preparations

N#Cc1c(Cl)c(Cl)c(Cl)c(C#N)c1Cl [chlorothalonil, 2,4,5,6-tetrachloro-1,3-dicyanobenzene]
volatility [1]: 9.2 mmHg
stability in aqueous preparations [2]: relatively stable
solubility in acetone and xylene (acetone and xylene): slightly soluble
solubility in water (water): 0.6-1.2 ppm
